Literature values, collected in patent US7393852B2, “Piperazine derivatives and methods of use” (Amgen Inc., priority 2003, dated 2008).
Peptide text beside a SMILES is read from it.

**Q.** For `NC(N)=NCCC[C@H](NC(=O)[C@H](Cc1ccccc1)NC(=O)[C@@H]1CCCN1C(=O)[C@H](CO)NC(=O)[C@H](Cc1ccccc1)NC(=O)CNC(=O)[C@@H]1CCCN1C(=O)[C@@H]1CCCN1C(=O)[C@@H](N)CCCN=C(N)N)C(=O)O` [BK, Bradykinin] (H-RPPGFSPFR-OH), which “half-life of BK in plasma” value is on record?
**A.** Its value is “approximately 17 seconds”.
